Experimental data reported in patent US20250262201A1, “COMPOUNDS AND METHODS USEFUL FOR STABILIZING PHENYLALANINE HYDROXYLASE MUTATIONS” (Agios Pharmaceuticals, Inc., priority 2022, published 2025).

biological target: T1, human PAH with the R408W mutation (Homo sapiens, UniProt P00439, R408W); experiment: Cell Based Phenylalanine Flux Assay; parameters: scale not given here; conditions: A375 R408W cells, 24 hrs with compound, then 20 μM sepiapterin and 800 μM 13C9,15N-Phenylalanine for 4 hours; 13C-Tyrosine by LC-MS; average where tested multiple times
T1 construct: expressed in transfected cells
T1 sequence (P00439 1-452 R408W): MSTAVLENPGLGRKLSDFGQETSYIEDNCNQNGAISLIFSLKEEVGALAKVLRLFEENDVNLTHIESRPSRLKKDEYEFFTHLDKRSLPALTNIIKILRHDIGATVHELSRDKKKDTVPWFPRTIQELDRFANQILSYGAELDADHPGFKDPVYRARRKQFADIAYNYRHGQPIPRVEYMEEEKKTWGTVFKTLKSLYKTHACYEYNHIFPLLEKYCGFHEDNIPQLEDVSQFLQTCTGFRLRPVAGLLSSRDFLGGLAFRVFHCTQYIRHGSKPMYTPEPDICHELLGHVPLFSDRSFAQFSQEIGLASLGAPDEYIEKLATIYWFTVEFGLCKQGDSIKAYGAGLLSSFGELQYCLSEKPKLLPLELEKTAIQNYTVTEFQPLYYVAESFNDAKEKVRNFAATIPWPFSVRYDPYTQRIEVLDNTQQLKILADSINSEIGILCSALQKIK

| AC50 | SMILES |
| --- | --- |
| E, E | CC(C)(O)c1nc(C(F)(F)F)c(C(=O)N2CCc3[nH]cnc3C2c2ccc3ccccc3n2)o1 (stereo not shown) |
| E, E | O=C(c1ocnc1C(F)(F)F)N1CCc2[nH]cnc2C1c1ncc2ccccc2n1 (stereo not shown) |

same assay, conditions: A375 R408W cells, 24 hrs with compound, then 20 μM sepiapterin and 800 μM 13C9,15N-Phenylalanine for 4 hours; 13C-Tyrosine by LC-MS; average where tested multiple times; read-out: AC50

| AC50 | SMILES |
| --- | --- |
| > 5000 nM | CN(C)Cc1nnc(C(=O)N2CCc3[nH]cnc3C2c2ccc3ccccc3n2)o1 (stereo not shown) |
| 1000 to 5000 nM | O=C(C1CN(c2ccccn2)C1)N1CCc2[nH]cnc2C1c1ccc2ccccc2n1 (stereo not shown) |
| 1000 to 5000 nM | O=C(c1nnc(CCNC2CC2)o1)N1CCc2[nH]cnc2C1c1ccc2ccccc2n1 (stereo not shown) |
| 1000 to 5000 nM | C[C@@H]1CN(C(=O)c2nnc(C3(C)CC3)o2)[C@@H](c2cc3ccccc3cn2)c2nc[nH]c21 |
| > 5000 nM | O=C(c1nnc(CCN2CCOCC2)o1)N1CCc2[nH]cnc2C1c1ccc2ccccc2n1 (stereo not shown) |

Further lines, the compound ahead of its results:

| SMILES | AC50 |
| --- | --- |
| O=C(c1cnco1)N1CCc2[nH]cnc2C1c1cn2ccccc2n1 (stereo not shown) | 1000 to 5000 nM |
| Cn1cc(-c2nnc(C(=O)N3CCc4[nH]cnc4C3c3cc4ccccc4nn3)o2)cn1 (stereo not shown) | 1000 to 5000 nM |
| O=C(c1cnc(C2CC2)o1)N1CCc2[nH]cnc2C1c1cn2ccccc2n1 (stereo not shown) | 1000 to 5000 nM |
| O=C(c1nnc(-c2ccccn2)o1)N1CCCc2[nH]cnc2C1c1cc2ccccc2cn1 (stereo not shown) | 1000 to 5000 nM |

same assay, conditions: A375 cells expressing human R408W PAH; 24 hrs compound incubation; 13C-Tyrosine by LC-MS; average where tested multiple times; read-out: AC50

| AC50 | SMILES |
| --- | --- |
| 500 to 1000 nM | O=C(c1cnc(-c2ccccn2)o1)N1CCc2[nH]cnc2[C@H]1c1ncc2ccccc2n1 [Example 158, (S)-(2-(pyridin-2-yl)oxazol-5-yl)(4-(quinazolin-2-yl)-6,7-dihydro-1H-imidazo[4,5-c]pyridin-5(4H)-yl)methanone] |
| > 5000 nM | CC(O)c1nc(Cl)c(C(=O)N2CCc3[nH]cnc3[C@@H]2c2ccc3ccccc3n2)o1 (single isomer, unassigned) [Example 135] |
| < 500 nM | Cc1ccc(-c2nnc(C(=O)N3CCc4[nH]cnc4C3c3ccc4ccccc4n3)o2)nc1 (stereo in doubt) [Example 104, (R)-(5-(5-methylpyridin-2-yl)-1,3,4-oxadiazol-2-yl)(4-(quinolin-2-yl)-6,7-dihydro-1H-imidazo[4,5-c]pyridin-5(4H)-yl)methanone] |
| > 5000 nM | Cc1nc(C2CC2)oc1C(=O)N1CCc2[nH]cnc2C1c1ccc2ccccc2n1 (stereo in doubt) [Example 36, (S)-(2-cyclopropyl-4-methyloxazol-5-yl)(4-(quinolin-2-yl)-6,7-dihydro-1H-imidazo[4,5-c]pyridin-5(4H)-yl)methanone] |
| < 500 nM | O=C(c1ccnn1C(F)F)N1CCc2[nH]cnc2C1c1ccc2ccccc2n1 (stereo in doubt) [Example 81, (R)-(1-(difluoromethyl)-1H-pyrazol-5-yl)(4-(quinolin-2-yl)-6,7-dihydro-1H-imidazo[4,5-c]pyridin-5(4H)-yl)methanone] |
| < 500 nM | O=C(Cc1nc(C(F)(F)F)cs1)N1CCc2[nH]cnc2[C@H]1c1cc2ccccc2cn1 [Example 368, (R)-1-(4-(isoquinolin-3-yl)-6,7-dihydro-1H-imidazo[4,5-c]pyridin-5(4H)-yl)-2-(4-(trifluoromethyl)thiazol-2-yl)ethanone] |
| 500 to 1000 nM | Cc1nc(C(C)(C)C)oc1C(=O)N1CCc2[nH]cnc2C1c1ccc2ccccc2n1 (stereo in doubt) [Example 7, (R)-(2-(tert-butyl)-4-methyloxazol-5-yl)(4-(quinolin-2-yl)-6,7-dihydro-1H-imidazo[4,5-c]pyridin-5(4H)-yl)methanone] |
| < 500 nM | C[C@H]1CN(C(=O)c2ocnc2C2CC2)[C@H](c2cc3ccccc3cn2)c2nc[nH]c21 [Example 506, (4-cyclopropyloxazol-5-yl)((4R,7S)-4-(isoquinolin-3-yl)-7-methyl-6,7-dihydro-1H-imidazo[4,5-c]pyridin-5(4H)-yl)methanone] |
| > 5000 nM | CC(C)(F)c1nnc(C(=O)N2CCc3[nH]cnc3[C@@H]2c2ncc3ccccc3n2)o1 [Example 162, (R)-(5-(2-fluoropropan-2-yl)-1,3-oxadiazol-2-yl)(4-(quinazolin-2-yl)-6,7-dihydro-1H-imidazo[4,5-c]pyridin-5(4H)-yl)methanone] |
| < 500 nM | CC(C)(F)c1ncc(C(=O)N2CCc3[nH]cnc3C2c2ccc3ccccc3n2)o1 (stereo in doubt) [Example 17, (R)-(2-(2-fluoropropan-2-yl)oxazol-5-yl)(4-(quinolin-2-yl)-6,7-dihydro-1H-imidazo[4,5-c]pyridin-5(4H)-yl)methanone] |

More lines, now with the values behind:

| SMILES | AC50 |
| --- | --- |
| C[C@H]1CN(C(=O)c2nnc(-c3ccc(F)cn3)o2)[C@@H](c2cc3ccccc3cn2)c2nc[nH]c21 [Example 497, (5-(5-fluoropyridin-2-yl)-1,3,4-oxadiazol-2-yl)((4S,7S)-4-(isoquinolin-3-yl)-7-methyl-6,7-dihydro-1H-imidazo[4,5-c]pyridin-5(4H)-yl)methanone] | 1000 to 5000 nM |
| CC(C)(O)c1nc(Cl)c(C(=O)N2CCc3[nH]cnc3C2c2ccc3ccccc3n2)o1 (stereo in doubt) [Example 114, (S)-(4-chloro-2-(2-hydroxypropan-2-yl)oxazol-5-yl)(4-(quinolin-2-yl)-6,7-dihydro-1H-imidazo[4,5-c]pyridin-5(4H)-yl)methanone] | > 5000 nM |
| O=C(c1nnc(-c2cc[nH]n2)o1)N1CCc2[nH]cnc2C1c1ccc2ccccc2n1 (stereo in doubt) [Example 116, (S)-(5-(1H-pyrazol-3-yl)-1,3,4-oxadiazol-2-yl)(4-(quinolin-2-yl)-6,7-dihydro-1H-imidazo[4,5-c]pyridin-5(4H)-yl)methanone] | 1000 to 5000 nM |
| O=C(c1cnc(-c2cnn(CC(F)(F)F)c2)s1)N1CCc2[nH]cnc2[C@@H]1c1cc2ccccc2cn1 [Example 307, (S)-(4-(isoquinolin-3-yl)-6,7-dihydro-1H-imidazo[4,5-c]pyridin-5(4H)-yl)(2-(1-(2,2,2-trifluoroethyl)-1H-pyrazol-4-yl)thiazol-5-yl)methanone] | > 5000 nM |
| O=C(c1cnco1)N1CCc2[nH]cnc2[C@H]1c1ncc2ccccc2n1 [Example 149, (S)-oxazol-5-yl(4-(quinazolin-2-yl)-6,7-dihydro-1H-imidazo[4,5-c]pyridin-5(4H)-yl)methanone] | < 500 nM |
| O=C(c1cnc(C2(F)CCC2)s1)N1CCc2[nH]cnc2[C@H]1c1cn2ccccc2n1 [Example 251, (R)-(2-(1-fluorocyclobutyl)thiazol-5-yl)(4-(imidazo[1,2-a]pyridin-2-yl)-6,7-dihydro-1H-imidazo[4,5-c]pyridin-5(4H)-yl)methanone] | 1000 to 5000 nM |
| CC(C)(O)c1nc(C(F)F)c(C(=O)N2CCc3[nH]cnc3C2c2ccc3ccccc3n2)o1 (stereo in doubt) [Example 92, (S)-(4-(difluoromethyl)-2-(2-hydroxypropan-2-yl)oxazol-5-yl)(4-(quinolin-2-yl)-6,7-dihydro-1H-imidazo[4,5-c]pyridin-5(4H)-yl)methanone] | 1000 to 5000 nM |
| CC(F)(F)c1ncc(C(=O)N2CCc3[nH]cnc3[C@H]2c2cn3ccccc3n2)s1 (single isomer, unassigned) [Example 236] | 1000 to 5000 nM |
| O=C(c1nnc(-c2cnn(C(F)F)c2)o1)N1CCc2[nH]cnc2C1c1ccc2ccccc2n1 (stereo in doubt) [Example 63, (R)-(5-(1-(difluoromethyl)-1H-pyrazol-4-yl)-1,3,4-oxadiazol-2-yl)(4-(quinolin-2-yl)-6,7-dihydro-1H-imidazo[4,5-c]pyridin-5(4H)-yl)methanone] | < 500 nM |
| O=C(c1nnc(-c2ccn(C(F)F)n2)o1)N1CCc2[nH]cnc2[C@H]1c1ccc2ccccc2n1 [Example 96] | 500 to 1000 nM |
| O=C(c1ocnc1C(F)(F)F)N1CCc2[nH]cnc2C1c1ccc2ccccc2n1 (stereo in doubt) [Example 38, (S)-(4-(quinolin-2-yl)-6,7-dihydro-1H-imidazo[4,5-c]pyridin-5(4H)-yl)(4-(trifluoromethyl)oxazol-5-yl)methanone] | 1000 to 5000 nM |
| Cn1ncnc1C(=O)N1CCc2[nH]cnc2[C@@H]1c1ncc2ccccc2n1 [Example 183, (R)-(1-methyl-1H-1,2,4-triazol-5-yl)(4-(quinazolin-2-yl)-6,7-dihydro-1H-imidazo[4,5-c]pyridin-5(4H)-yl)methanone] | 1000 to 5000 nM |
| Cc1nnc(CCC(=O)N2CCc3[nH]cnc3[C@H]2c2cc3ccccc3cn2)o1 [Example 345, (R)-1-(4-(isoquinolin-3-yl)-6,7-dihydro-1H-imidazo[4,5-c]pyridin-5(4H)-yl)-3-(5-methyl-1,3,4-oxadiazol-2-yl)propan-1-one] | 500 to 1000 nM |
| O=C(c1cnn2cc(Br)ccc12)N1CCc2[nH]cnc2[C@H]1c1cc2ccccc2cn1 [Example 352, (R)-(6-bromopyrazolo[1,5-a]pyridin-3-yl)(4-(isoquinolin-3-yl)-6,7-dihydro-1H-imidazo[4,5-c]pyridin-5(4H)-yl)methanone] | < 500 nM |
| CN(C)c1nnc(C(=O)N2CCc3[nH]cnc3[C@H]2c2cc3ccccc3cn2)o1 [Example 366, (R)-(5-(dimethylamino)-1,3,4-oxadiazol-2-yl)(4-(isoquinolin-3-yl)-6,7-dihydro-1H-imidazo[4,5-c]pyridin-5(4H)-yl)methanone] | < 500 nM |
| O=C(c1nnc(-c2ccc(C(F)(F)F)cn2)o1)N1CCc2[nH]cnc2[C@H]1c1cc2ccccc2cn1 [Example 442, (R)-(4-(isoquinolin-3-yl)-6,7-dihydro-1H-imidazo[4,5-c]pyridin-5(4H)-yl)(5-(5-(trifluoromethyl)pyridin-2-yl)-1,3,4-oxadiazol-2-yl)methanone] | < 500 nM |
